The results in this text go back to patent publication US9180155B2, “Compositions from Nigella sativa” (Bio Nexus, Ltd, priority 2013, dated 2015).

This assay relates to Caco-2 monolayers. Kind of assay: LPS/H2O2-mediated loss of TEER in Caco-2 monolayers. It counts as cell-based, human. The following applies: LPS/H2O2 control = 100, 3 h; μg TQ equivalents/mL: Thymoquinone 5.0, NS8 0.11, NS9 0.99, NS10 0.012, NSSpent#2 0.0005; NSSpent#1 5 μg/mL; listed as TQ. The text has this:
The protocol for growing and differentiation the human Caco-2 colon andenocarcinoma cells was a modification of Protocol 3 as described by Yamashita et al. [[…]., and Furuyama, Y. 2002) New and better protocols for a short-term Caco-2 cell culture system, J Pharm Sci 91, 669-679]. Caco-2 Human Colon Adenocarcinoma cells were obtained from ATCC (Rockville, Md.; catalog #HTB-37) and maintained in a growth media: DMEM (Dulbecco's Modified Eagles Medium 1×) containing L-glutamine, glucose; Cellgro catalog #35-010CV with the following additions: (1) Penicillin (5,000 IU/mL)/Streptomycin (5,000 μg/mL) Cellgro catalog #30-001C1, (2) 10% FBS-Fetal Bovine Serum, Characterized; Hyclone catalog #SH30071.3, and (3) 1% NEAA-Non Essential Amino Acids; Cellgro catalog #25-025-CI; cells were cultured at 37 C in a humidified air-5% CO2 atmosphere in T175 flasks. BIOCOAT^R HTS Caco-2 Assay System kits (Becton Dickinson, N.J.; catalog #354801) consisting of 24-well fibrillar collagen coated inserts and feeder trays were used in all experiments and plated as follows. Media was removed from the T175 flasks and cells were washed with 10 mLs PBS (phosphate buffered saline 1× without Ca^++, without Mg^++; Cellgro #25-053-CI). […]

Consider `CC1=CC(=O)C(C(C)C)=CC1=O` [Thymoquinone, thymoquinone], for which the “Relative Loss of TEER” value is reported as “no effect”.
